Laboratory results reported in ChEMBL document CHEMBL1201862, “PubChem BioAssay data set” (2004).
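Protocol summary: plate cells (96-well), add compound at 5 concentrations, incubate 48 h, interpolate endpoints linearly. The concentration for 50% growth inhibition is given as GI50.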 Active and inactive are the calls of the source. Cut-off read from the data, not from the text of the source: active = GI50 up to about 1.1 µM and inactive = higher.

Key:
Experiment in all cases: growth of human tumour cells (NCI), 48 h
[1] = test system: BT-549
[2] = test system: CCRF-CEM
[3] = test system: OVCAR-8
[4] = test system: MDA-N
[5] = test system: SR
[6] = test system: 786-0
[7] = test system: TK-10
[8] = test system: SW-620
[9] = test system: SK-MEL-2
[10] = test system: A498
[11] = test system: MCF7
[12] = test system: HOP-62
[13] = test system: MDA-MB-435
[14] = test system: SNB-19
[15] = test system: NCI-H460

Measured: GI50

CN(C)CCCNC(=S)S
inactive: [1] > 100 µM | [2] > 100 µM | [3] > 100 µM | [4] > 100 µM | [5] > 100 µM | [6] > 100 µM | [7] > 100 µM | [8] > 100 µM | [9] > 100 µM | [10] > 100 µM | [11] > 100 µM | [12] > 100 µM | [13] > 100 µM | [14] > 100 µM | [15] > 100 µM

C=CCCON(C(=O)OC(C)(C)C)c1ccccc1
inactive: [1] > 100 µM | [2] 12.2 µM | [3] > 100 µM | [4] > 100 µM | [6] 74 µM | [7] > 100 µM | [8] > 100 µM | [9] > 100 µM | [10] > 100 µM | [12] > 100 µM | [13] > 100 µM | [14] > 100 µM | [15] > 100 µM

N=c1n(C(=O)N2CCCC2)c2cc(Cl)ccc2n1C1=NCCN1
inactive: [1] 60.1 µM | [2] 41.7 µM | [3] 88.3 µM | [4] 61.8 µM | [5] 38.2 µM | [6] 54 µM | [7] 86.5 µM | [8] 52.6 µM | [9] 33.1 µM | [10] > 100 µM | [11] 35.8 µM | [12] > 100 µM | [13] 52 µM | [14] > 100 µM | [15] > 100 µM

O=c1oc2ccc(-n3c(=O)c4ccccc4c4ccccc4c3=O)cc2c2ccccc12
inactive: [1] 57.1 µM | [2] > 100 µM | [3] > 100 µM | [4] > 100 µM | [6] 66.2 µM | [7] > 100 µM | [8] > 100 µM | [9] 28.3 µM | [10] > 100 µM | [11] > 100 µM | [12] > 100 µM | [13] > 100 µM | [14] 37.7 µM | [15] > 100 µM

COc1cccc(C2c3cc4c(cc3OC(N3CCOCC3)C2C)OCO4)c1 (stereo unspecified)
inactive: [1] 3.39 µM | [3] 23.4 µM | [4] 3.07 µM | [5] 9.1 µM | [8] 3.19 µM | [9] 12.2 µM | [11] 6.61 µM | [12] 16.2 µM | [14] 20.5 µM | [15] 14.2 µM

Brc1cc(CCOC2CCCCO2)c(-c2sccc2CCOC2CCCCO2)s1 (stereo unspecified)
inactive: [1] 49.7 µM | [2] 19.9 µM | [3] 45.5 µM | [4] 40.3 µM | [5] 9.75 µM | [6] 35.1 µM | [7] > 59.6 µM | [8] > 65.8 µM | [9] 27.4 µM | [10] > 69 µM | [11] 20.3 µM | [12] 63.2 µM | [13] 37.7 µM | [14] > 100 µM | [15] 33.4 µM

CCOC(=O)c1sc2nc(SC)nc(N3CCCCC3)c2c1N
inactive: [1] > 100 µM | [3] > 100 µM | [4] > 100 µM | [5] > 100 µM | [6] > 100 µM | [7] > 100 µM | [8] > 100 µM | [9] > 100 µM | [10] > 100 µM | [12] > 100 µM | [13] > 100 µM | [14] > 100 µM | [15] > 100 µM

CC1=CC(=O)CC2(C)CCC(C(C)CC(=O)CC(C)C)CC12 (stereo unspecified)
inactive: [2] 23.9 µM | [3] 24.5 µM | [5] 20 µM | [6] 16.4 µM | [7] > 100 µM | [8] 22.7 µM | [9] 78.9 µM | [10] > 100 µM | [11] 25.6 µM | [13] 20.3 µM | [14] > 100 µM | [15] 32.4 µM

COC(=O)N[C@H](C(=O)NC(OCc1ccccc1)C1COC(C)(C)O1)C(C)O[Si](C)(C)C(C)(C)C (stereo partly specified)
inactive: [2] > 100 µM | [3] > 100 µM | [4] > 100 µM | [5] 26.4 µM | [6] > 100 µM | [7] > 100 µM | [8] 75.3 µM | [10] > 100 µM | [11] 27.6 µM | [12] 92.5 µM | [14] > 100 µM | [15] 57.3 µM

OC1(c2ccc(Cl)cc2)c2ccc3ccccc3c2C2=N[C@H]3CCCC[C@@H]3N21 (stereo partly specified)
inactive: [2] 21.7 µM | [3] 1.55 µM | [4] 10.6 µM | [7] 1.52 µM | [8] 16.8 µM | [9] 38.5 µM | [10] 20.3 µM | [11] 8.45 µM | [12] 2.54 µM | [13] 10.7 µM | [14] 36.8 µM | [15] 13.3 µM
